In ChEMBL document CHEMBL5154843, “Discovery of spirooxadiazoline oxindoles with dual-stage antimalarial activity” (Eur J Med Chem, 2022):
pIC50: −log10 of the molar value. The source made the active and inactive calls. No cut-off for these calls is given here.

Tests used:
Plasmodium falciparum [1] = assay: Antiplasmodial activity against erythrocytic stage of chloroquine-resistant Plasmodium falciparum W2 measured after 48 hrs by flow cytometry; assay type: functional, organism-based; conditions: W2, 48 h
Plasmodium berghei = assay: Antiplasmodial activity against hepatic stage Plasmodium berghei infected in Huh-7 cells assessed as cell viability incubated for 1 hrs and measured by 48 hrs by bioluminescence assay; assay type: functional, organism-based
Plasmodium falciparum [2] = assay: Antiplasmodial activity against Plasmodium falciparum 3D7 measured after 72 hrs by parasite proliferation assay; assay type: functional, organism-based; conditions: 3D7, 72 h
Plasmodium falciparum [3] = assay: Inhibition of plasmodium falciparum 3D7 ATP4 ATPase activity under low-soidum conditions at 50 uM
Plasmodium falciparum [4] = assay: Inhibition of plasmodium falciparum 3D7 ATP4 ATPase activity under high-soidum conditions at 50 uM
Plasmodium falciparum [5] = assay: Antiplasmodial activity against Plasmodium falciparum 3D7 assessed as effect on cytosolic sodium concentration at 50 nM measured after 90 mins by SBFI-dye based fluorescence method; assay type: functional, organism-based
Plasmodium falciparum [6] = assay: Inhibition of plasmodium falciparum 3D7 ATP4 ATPase activity under high-soidum conditions at 125 nM

O=C1Nc2ccc(Cl)cc2C12OC(c1cccc(Cl)c1)=NN2c1ccccc1 (stereo unspecified)
pIC50 (Plasmodium falciparum [1]): < 5.00

COc1ccc(C2=NN(c3ccccc3)C3(O2)C(=O)Nc2c(Cl)cccc23)cc1 (stereo unspecified)
pIC50 (Plasmodium falciparum [1]): < 5.00

O=C1Nc2ccc(Cl)cc2C12OC(c1ccc(Cl)cc1)=NN2c1ccccc1 (stereo unspecified)
pIC50 (Plasmodium falciparum [1]): < 5.00

CC(C)(C)C1=NN(c2ccccc2Cl)C2(O1)C(=O)Nc1ccc(Br)cc12 (stereo unspecified)
pIC50 (Plasmodium falciparum [1]): < 5.00

O=C1Nc2ccc(Cl)cc2C12OC(c1ccccc1)=NN2c1cccc(Cl)c1 (stereo unspecified)
pIC50 (Plasmodium berghei): 5.15
pIC50 (Plasmodium falciparum [1]): 5.19

COc1ccc(C2=NN(c3ccccc3)C3(O2)C(=O)Nc2ccc(Br)cc23)cc1 (stereo unspecified)
pIC50 (Plasmodium berghei): < 5.00
pIC50 (Plasmodium falciparum [1]): 5.08

O=C1Nc2c(Cl)cccc2C12OC(c1ccccc1)=NN2c1cccc(Cl)c1 (stereo unspecified)
pIC50 (Plasmodium falciparum [1]): < 5.00

O=C1Nc2c(Cl)cccc2C12OC(c1cccc(Cl)c1)=NN2c1cccc(Cl)c1 (stereo unspecified)
pIC50 (Plasmodium falciparum [1]): < 5.00

O=C1Nc2cc(Cl)ccc2C12OC(c1ccccc1)=NN2c1cccc(Cl)c1 (stereo unspecified)
pIC50 (Plasmodium berghei): 5.14
pIC50 (Plasmodium falciparum [1]): 5.07

O=C1Nc2ccc(Br)cc2C12OC(c1ccccc1)=NN2c1ccc(Cl)cc1 (stereo unspecified)
pIC50 (Plasmodium falciparum [2]): 5.21
pIC50 (Plasmodium berghei): 5.39
inhibition (Plasmodium falciparum [3]): Active
pIC50 (Plasmodium falciparum [1]): 5.22
inhibition (Plasmodium falciparum [4]): Active

O=C1Nc2ccc(Br)cc2C12OC(c1cccc(Cl)c1)=NN2c1ccccc1 (stereo unspecified)
pIC50 (Plasmodium falciparum [1]): < 5.00

CC(C)(C)C1=NN(c2cccc(Cl)c2)C2(O1)C(=O)Nc1ccc(Cl)cc12 (stereo unspecified)
pIC50 (Plasmodium berghei): 5.28
pIC50 (Plasmodium falciparum [1]): 5.46

CC(C)(C)C1=NN(c2cccc(Cl)c2)C2(O1)C(=O)Nc1cc(Br)ccc12 (stereo unspecified)
pIC50 (Plasmodium berghei): 5.02
pIC50 (Plasmodium falciparum [1]): 5.34

CC(C)(C)C1=NN(c2ccccc2Cl)C2(O1)C(=O)Nc1ccc(Cl)cc12 (stereo unspecified)
pIC50 (Plasmodium falciparum [1]): < 5.00

O=C1Nc2ccccc2C12OC(c1ccccc1)=NN2c1cccc(Cl)c1 (stereo unspecified)
pIC50 (Plasmodium falciparum [1]): < 5.00

O=C1Nc2c(Cl)cccc2C12OC(c1ccccc1)=NN2c1ccc(Cl)cc1 (stereo unspecified)
pIC50 (Plasmodium berghei): < 5.00
pIC50 (Plasmodium falciparum [1]): 5.12

O=C1Nc2cc(Br)ccc2C12OC(c1ccccc1)=NN2c1cccc(Cl)c1 (stereo unspecified)
pIC50 (Plasmodium falciparum [1]): < 5.00

CC(C)(C)C1=NN(c2cccc(Cl)c2)C2(O1)C(=O)Nc1cc(Cl)ccc12 (stereo unspecified)
pIC50 (Plasmodium berghei): < 5.00
pIC50 (Plasmodium falciparum [1]): 5.42

O=C1Nc2ccc(Br)cc2C12OC(c1ccc(Cl)cc1)=NN2c1ccccc1 (stereo unspecified)
pIC50 (Plasmodium falciparum [1]): < 5.00

COc1ccc(C2=NN(c3ccccc3)C3(O2)C(=O)Nc2ccccc23)cc1 (stereo unspecified)
pIC50 (Plasmodium falciparum [1]): < 5.00

COc1ccc(C2=NN(c3ccccc3)C3(O2)C(=O)Nc2ccc(Cl)cc23)cc1 (stereo unspecified)
pIC50 (Plasmodium falciparum [1]): < 5.00

CC(C)(C)C1=NN(c2cccc(Cl)c2)C2(O1)C(=O)Nc1ccc(Br)cc12 (stereo unspecified)
pIC50 (Plasmodium berghei): 5.05
pIC50 (Plasmodium falciparum [1]): 5.12

O=C1Nc2c(Cl)cccc2C12OC(c1cccc(Cl)c1)=NN2c1ccccc1 (stereo unspecified)
pIC50 (Plasmodium falciparum [1]): < 5.00

C[C@H]1Cc2c([nH]c3cc(Cl)c(F)cc23)[C@@]2(N1)C(=O)Nc1ccc(Cl)cc12
Activity (Plasmodium falciparum [5]): Active
inhibition (Plasmodium falciparum [6]): Active

O=C1Nc2ccc(Br)cc2C12OC(c1ccccc1)=NN2c1cccc(Cl)c1 (stereo unspecified)
pIC50 (Plasmodium berghei): 5.41
pIC50 (Plasmodium falciparum [1]): 5.17

O=C1Nc2c(Cl)cccc2C12OC(c1ccc(Cl)cc1)=NN2c1ccccc1 (stereo unspecified)
pIC50 (Plasmodium falciparum [1]): < 5.00

O=C1Nc2ccccc2C12OC(c1cccc(Cl)c1)=NN2c1ccccc1 (stereo unspecified)
pIC50 (Plasmodium falciparum [1]): < 5.00
